Source: patent publication US20210169883A1, “METHOD OF TREATING AGGRESSION WITH OREXIN RECEPTOR ANTAGONISTS” (Icahn School of Medicine at Mount Sinai, priority 2018, published 2021)
“Also recorded” adds a separate entry of the source. Like-named read-outs stand apart in the source and are kept apart here.

Assays:
[1] = tested on: aggressive (AGG) male CD-1 mice; assay type: in vivo, mouse
Description: Aggression screening was performed as previously described by utilizing the resident intruder (RI) test (Golden et al., 2016b). After a minimum of one week of habituation to home cages, experimental mice were exposed to a novel C57BL/6J intruder for 3 min daily over 3 consecutive days. Each intruder presentation was performed in the home cage of the experimental mouse between 12-3 PM daily under white light conditions. During RI sessions the cage top was removed to allow for unobstructed viewing and video recording of sessions. The duration and number of screening sessions were selected to prevent induction of stress- and anxiety-related behaviors in experimental mice (Golden et al., 2016b). All RI sessions were video recorded with a digital color video camera. Two blind observers recorded (1) the latency to initial aggression and (2) the total duration of aggression. The initiation of aggression was defined by the first clear physical antagonistic interaction initiated by the resident mouse (usually a bite), not including grooming or pursuit behavior. Aggression was considered completed when the resident mouse had reoriented away from the intruder following the initiation of attack. This definition allows for slight breaks (less than 5 s) in continuous physical interaction within an aggressive bout, assuming the resident mouse has remained oriented towards the intruder throughout.
(§1) Vehicle comparison for these drugs consisted of 75% DMSO in sterile water alone. SR-9659 was dissolved in 20% DMSO in sterile water. Vehicle comparison for this drug consisted of 20% DMSO in water alone. All drugs were administered intraperitoneally (I.P.) 30 minutes before behavioral testing. All injection volumes were limited to 100 μl.
First, mice were screened for three consecutive days in the RI test. Only AGGs were selected for subsequent pharmacology experiments, as it was hypothesized that treatment with orexin antagonists would reduce aggression. […] 24 hours following the last RI test, mice were treated again with either drug or vehicle and anxiety and locomotion were assessed using the open field test.

[2] = tested on: male CD-1 mice; assay: Object recognition test; assay type: in vivo, mouse; settings: 30 mg/kg EMPA or 20 mg/kg seltorexant IP; one-way ANOVA
Description: as §1, with “(IP)” for “(I.P.)”
Mice were presented with two different objects in a first (training) session, and then one of the two objects was replaced with a new object during a second (test) session. The time spent investigating each object provided an index of object recognition memory. This was calculated by subtracting the time spent with the familiar object from the time spent with the novel object.

[3] = tested on: aggressive (AGG) CD-1 mice; assay: Aggression conditioned place preference (CPP), systemic EMPA (Example 1); assay type: in vivo, mouse; settings: EMPA 30 mg/kg I.P., vs vehicle, between-subjects
Description: The aggression CPP protocol was carried out according to Golden et al. (6). Briefly, this task consisted of three phases: pre-test, acquisition (conditioning), and test. Mice were acclimated to the testing facility for 1 h before all testing. All phases were conducted under red light and sound-attenuated conditions. The CPP apparatus (Med Associates) consisted of two unique conditioning chambers with a neutral middle zone that allowed for unbiased entry into either conditioning chamber at the initiation of each trial. During the pre-test phase, mice were placed into the middle chamber of the conditioning apparatus and allowed to freely explore the apparatus for 20 min. There were no group differences in bias for either chamber, and conditioning groups were balanced in an unbiased fashion to account for pre-test preference. The acquisition phase consisted of three consecutive days with two conditioning trials each day for a total of 6 acquisition trials. Morning trials (between 8-10 AM) and afternoon trials (between 3-5 PM) consisted of experimental mice confined to one chamber for 10 min while in the presence or absence of a novel C57BL/6J intruder mouse. All groups were counterbalanced for the conditioning chamber. […] Total locomotor activity was also recorded to ensure equal exploratory behavior between groups. […]

[4] = tested on: male CD-1 mice; assay: Social recognition test; assay type: in vivo, mouse; settings: 30 mg/kg EMPA or 20 mg/kg seltorexant IP; one-way ANOVA
Description: as §1, with “(IP)” for “(I.P.)”
Mice were presented with two conspecific mice in a first (training) session, and then one of the two conspecific mice was replaced with an unfamiliar mouse in a second (test) session. The time spent by the test mouse investigating each conspecific mouse provided and index of social memory. This was calculated by subtracting the time spent with the novel mouse from the time spent with the familiar mouse.

[5] = tested on: male CD-1 mice; assay: Object placement test (spatial memory); assay type: in vivo, mouse; settings: 30 mg/kg EMPA or 20 mg/kg seltorexant IP; one-way ANOVA
Description: as §1, with “(IP)” for “(I.P.)”
Mice were presented with two of the same object in a first (training) session, and then one of the two objects was moved to a different location in the arena during a second (test) session. The time spent investigating each object provided an index of spatial memory. This was calculated by subtracting the time spent with the object in the familiar location from the time spent with the object in the novel location.

[6] = tested on: aggressive (AGG) CD-1 mice; assay: Resident intruder (RI) test, acute systemic EMPA (Example 1); assay type: in vivo, mouse
Description: Aggression screening was performed as previously described by utilizing the resident intruder (RI) test (6). After a minimum of one week of habituation to home cages, experimental mice were exposed to a novel C57BL/6J intruder for 3 min daily over 3 consecutive days. Each intruder presentation was performed in the home cage of the experimental mouse between 12-3 PM daily under white light conditions. During RI sessions the cage top was removed to allow for unobstructed viewing and video recording of sessions. The duration and number of screening sessions were selected to prevent induction of stress- and anxiety-related behaviors in experimental CD-1 or F1 hybrid mice (6). All RI sessions were video recorded with a digital color video camera. Two blind observers recorded (1) the latency to initial aggression and (2) the total duration of aggression. The initiation of aggression was defined by the first clear physical antagonistic interaction initiated by the resident mouse (usually a bite), not including grooming or pursuit behavior. Aggression was considered completed when the resident mouse had reoriented away from the intruder following the initiation of attack. This definition allows for slight breaks (less than 5 s) in continuous physical interaction within an aggressive bout, assuming the resident mouse has remained oriented towards the intruder throughout. […]

[7] = cited from earlier work; for abuse potential: human, in vivo
[8] = target: T1, OX2R (Homo sapiens, UniProt O43614); settings: cited from earlier work
T1 sequence (O43614 1-444): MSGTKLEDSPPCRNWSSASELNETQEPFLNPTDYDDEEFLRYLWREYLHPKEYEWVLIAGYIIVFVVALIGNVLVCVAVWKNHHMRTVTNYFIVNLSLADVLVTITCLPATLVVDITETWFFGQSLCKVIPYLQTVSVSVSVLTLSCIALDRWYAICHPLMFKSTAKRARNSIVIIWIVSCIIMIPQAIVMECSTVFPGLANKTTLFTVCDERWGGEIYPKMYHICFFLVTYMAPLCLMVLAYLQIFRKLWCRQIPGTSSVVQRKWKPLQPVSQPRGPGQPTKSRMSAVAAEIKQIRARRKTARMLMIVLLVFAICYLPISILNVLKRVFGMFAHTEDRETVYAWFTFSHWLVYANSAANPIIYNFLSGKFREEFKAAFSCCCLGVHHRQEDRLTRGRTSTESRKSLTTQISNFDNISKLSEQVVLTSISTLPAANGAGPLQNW

[9] = target: T2, OX1R (Homo sapiens, UniProt O43613); settings: less potent; cited from earlier work
T2 sequence (O43613 1-425): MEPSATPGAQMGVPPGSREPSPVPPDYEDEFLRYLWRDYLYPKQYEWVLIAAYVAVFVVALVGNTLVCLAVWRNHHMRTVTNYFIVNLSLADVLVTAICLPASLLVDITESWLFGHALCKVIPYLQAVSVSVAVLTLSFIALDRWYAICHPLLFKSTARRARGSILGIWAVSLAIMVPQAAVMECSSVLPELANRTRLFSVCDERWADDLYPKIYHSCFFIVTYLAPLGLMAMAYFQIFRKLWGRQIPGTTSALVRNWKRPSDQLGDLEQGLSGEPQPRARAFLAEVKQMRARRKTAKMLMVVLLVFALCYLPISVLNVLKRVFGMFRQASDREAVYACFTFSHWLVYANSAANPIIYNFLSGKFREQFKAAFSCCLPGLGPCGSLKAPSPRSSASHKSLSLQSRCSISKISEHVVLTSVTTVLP

[10] = tested on: putative glutamatergic LHb neurons; assay: Slice optogenetic stimulation of LHb GAD2 neurons recording; assay type: cell-based, mouse
[11] = three days of RI, daily I.P. 30 min before test, EMPA 30 mg/kg, seltorexant 20 mg/kg, suvorexant 20 mg/kg

## CCN(Cc1cccnc1)C(=O)CN(c1ccc(OC)nc1)S(=O)(=O)c1ccccc1C [EMPA, N-ethyl-2-[(6-methoxy-pyridin-3-yl)-(toluene-2-sulphonyl)-amino]-N-pyridin-3-ylmethyl-acetamide]
[1]; over the three days of RI
  effects of OxR2 antagonism on aggression, EMPA versus seltorexant: virtually indistinguishable
[1]; [11]
  latency to attack: increased
  total duration of attack: reduced
[2]
  time spent with each object compared to vehicle treatment (object recognition memory, FIG. 18C): did not alter
[3]
  aggression CPP: reduced
[4]
  time spent with each mouse compared to vehicle treatment (social recognition, FIG. 18A): did not alter
[5]
  time spent with each object compared to vehicle treatment (spatial memory, object placement, FIG. 18B): did not alter
[6]; EMPA 30 mg/kg I.P. 25 min before test, vs vehicle, within-subjects
  attack duration in RI test: reduced
[6]; systemic EMPA, 30 mg/kg, acute
  aggression (in RI): reduces aggression; also recorded: reduced

## Cc1cc(C)nc(N2CC3CN(C(=O)c4c(F)cccc4-n4nccn4)CC3C2)n1 (stereo not shown) [seltorexant]
[7]
  abuse potential: low abuse potential
[1]; mouse, in vivo
  effects of OxR2 antagonism on aggression, EMPA versus seltorexant: virtually indistinguishable
  latency to attack: increased
  total duration of attack: reduced
[2]
  time spent with each object compared to vehicle treatment (object recognition memory, FIG. 18C): did not alter
[4]
  time spent with each mouse compared to vehicle treatment (social recognition, FIG. 18A): did not alter
[5]
  time spent with each object compared to vehicle treatment (spatial memory, object placement, FIG. 18B): did not alter

## Cc1ccc(-n2nccn2)c(C(=O)N2CCN(c3nc4cc(Cl)ccc4o3)CC[C@H]2C)c1 [suvorexant]
[7]
  abuse potential: low abuse potential
[7]; variety of patient populations
  tolerability in patient populations: well tolerated
[1]; RI test, doses tested
  reduction / attenuation of aggressive behavior: some attenuation of aggression
[1]; any day of RI, suvorexant 20 mg/kg I.P., SR-9659 I.P.
  number of mice that attacked, drug vs vehicle: no differences
[1]; [11]
  latency to attack: only altered attack latency and duration on day 3
  total duration of attack: only altered attack latency and duration on day 3

## orexin-B
[8]
  potency towards OX2R relative to orexin-A: equipotent
[9]
  potency in activating OX1R relative to orexin-A: 10 fold

## picrotoxin
[10]
  optically elicited monosynaptic inhibitory currents in putative glutamatergic LHb neurons: completely blocked
